# Data taken from PMC2710007, “Anchoring Secreted Proteins in Endoplasmic Reticulum by Plant Oleosin: The Example of Vitamin B12 Cellular Sequestration by Transcobalamin” (PLoS ONE, 2009).
# Target: T1, transcobalamin-oleosin (TC-O) chimera (Homo sapiens, UniProt P20062)
# T1 construct: gene TCN2; single fusion: human TC without N-terminal signal peptide and stop codon, at the N-terminal side of full-length peanut oleosin (ER anchor; printed oleosin primer encodes MATATDR...); pAcSG2 baculovirus, Sf9 cells; membrane fraction, not purified; with Oleosin (peanut, 17 kDa)
# T1 sequence (P20062 19-427): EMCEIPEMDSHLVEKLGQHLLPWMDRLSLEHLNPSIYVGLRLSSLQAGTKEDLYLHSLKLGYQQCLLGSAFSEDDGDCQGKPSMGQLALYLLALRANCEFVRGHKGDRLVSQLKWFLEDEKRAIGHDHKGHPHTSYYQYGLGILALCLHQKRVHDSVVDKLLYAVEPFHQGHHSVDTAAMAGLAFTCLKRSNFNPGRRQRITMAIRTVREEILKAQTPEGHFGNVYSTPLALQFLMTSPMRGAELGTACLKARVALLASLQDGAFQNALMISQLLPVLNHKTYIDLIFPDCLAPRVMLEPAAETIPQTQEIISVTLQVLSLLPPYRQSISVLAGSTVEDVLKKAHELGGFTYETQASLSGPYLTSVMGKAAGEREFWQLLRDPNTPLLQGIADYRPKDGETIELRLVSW
# Assay: radioligand saturation binding, Scatchard plot
# Type: biochemical
# Details: membrane fraction of lysed Sf9 cells; 57Co labelled compound; TBS, 4 °C, 20 min; printed as Ka but in a concentration unit (that of a dissociation constant)
substance,measurement,value
[57Co]-labeled vitamin B12,Ka,~ 0.02 pmol/L
